Columns and labels:
B. subtilis 168 [1] = assay: fitness (endpoint OD595 vs no drug) (fraction); higher = more growth
Procedure, shortened: (§1)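 Volumes were 30 µl per well, or 55 µl for S. pneumoniae, in 384-well plates inoculated at OD595 0.01. Media were TSB, LB Lennox or CY at 37 °C, and OD595 was read every 30 min for 14 h with first-reading background subtraction. Fitness is the ratio of optical density at stationary-phase entry to the robust mean of no-drug controls. That ratio is capped at 1.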

S. aureus Newman [2] = assay: as above
Procedure, shortened: as §1

B. subtilis 168 [3] = assay: Bliss interaction score (quartile over a dose matrix) (fitness difference); higher = more antagonism (negative = synergy)
Procedure, shortened: (§2)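 Each plate was normalised to the robust mean of its own no-drug wells, using OD595 at entry into stationary phase, with values capped at 1. This normalised growth is the fitness value. The Bliss score is the difference between observed and product-expected fitness, with single-drug fitness inferred from the combination data and quartiles taken over technical, biological and donor/recipient replicates.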

S. aureus DSM 20231 = assay: as above
Procedure, shortened: as §2

S. pneumoniae D39V = assay: as above
Procedure, shortened: as §2

S. aureus Newman [4] = assay: as above
Procedure, shortened: as §2
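Throughout, for Bliss interaction score (quartile over a dose matrix): first quartile when negative (synergy) and third quartile when positive (antagonism).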

CC[C@H]1OC(=O)[C@H](C)[C@@H](O[C@H]2C[C@@](C)(OC)[C@@H](O)[C@H](C)O2)[C@H](C)[C@@H](O[C@@H]2O[C@H](C)C[C@H](N(C)C)[C@H]2O)[C@](C)(O)C[C@@H](C)CN(C)[C@H](C)[C@@H](O)[C@]1(C)O [Azithromycin] + CN(C)c1cc(NC(=O)CNC(C)(C)C)c(O)c2c1C[C@H]1C[C@H]3[C@H](N(C)C)C(O)=C(C(N)=O)C(=O)[C@@]3(O)C(O)=C1C2=O [Tigecycline]
fitness
Conditions	partner 0.039 µg/mL	partner 0.078 µg/mL	partner 0.156 µg/mL
B. subtilis 168 [1], first compound 0.25 µg/mL	0.979	0.873	0.887
B. subtilis 168 [1], first compound 0.5 µg/mL	0.886	0.811	0.839
S. aureus Newman [2], first compound 0.125 µg/mL	0.892	0.908	0.855
S. aureus Newman [2], first compound 0.25 µg/mL	0.88	0.868	0.912
S. aureus Newman [2], first compound 0.5 µg/mL	0.641	0.666	0.622

fitness, B. subtilis 168 [1], one replicate
Conditions	first compound 0.5 µg/mL	first compound 1 µg/mL	first compound 2 µg/mL
partner 0.125 µg/mL	0.894	0.947	0.614
partner 0.25 µg/mL	0.889	0.871	0.48
partner 0.5 µg/mL	0.941	0.826	0.332

Conditions	Bliss interaction score
B. subtilis 168 [3]	0.0692
S. aureus DSM 20231	-0.0977
S. aureus Newman [4]	-0.0615
S. pneumoniae D39V	-0.0801

CC[C@H]1OC(=O)[C@H](C)[C@@H](O[C@H]2C[C@@](C)(OC)[C@@H](O)[C@H](C)O2)[C@H](C)[C@@H](O[C@@H]2O[C@H](C)C[C@H](N(C)C)[C@H]2O)[C@](C)(O)C[C@@H](C)CN(C)[C@H](C)[C@@H](O)[C@]1(C)O [Azithromycin] + CN[C@@H]1[C@H](O[C@H]2[C@H](O[C@H]3[C@H](O)[C@@H](O)[C@H](N=C(N)N)[C@@H](O)[C@@H]3N=C(N)N)O[C@@H](C)[C@]2(O)C=O)O[C@@H](CO)[C@H](O)[C@H]1O [Streptomycin]
fitness
Conditions	first compound 0.125 µg/mL	first compound 0.25 µg/mL	first compound 0.5 µg/mL
B. subtilis 168 [1], partner 2 µg/mL	–	0.943	0.843
B. subtilis 168 [1], partner 4 µg/mL	–	0.807	0.739
S. aureus Newman [2], partner 1 µg/mL	0.881	0.849	–

Conditions	Bliss interaction score
B. subtilis 168 [3]	0.206
S. aureus DSM 20231	0.108
S. aureus Newman [4]	0.102
S. pneumoniae D39V	-0.0455

CC[C@H]1OC(=O)[C@H](C)[C@@H](O[C@H]2C[C@@](C)(OC)[C@@H](O)[C@H](C)O2)[C@H](C)[C@@H](O[C@@H]2O[C@H](C)C[C@H](N(C)C)[C@H]2O)[C@](C)(O)C[C@@H](C)CN(C)[C@H](C)[C@@H](O)[C@]1(C)O [Azithromycin] + CO/N=C(\C(=O)N[C@@H]1C(=O)N2C(C(=O)O)=C(COC(N)=O)CS[C@H]12)c1ccco1 [Cefuroxime]
fitness, one replicate
Conditions	partner 0.04875 µg/mL	partner 0.0975 µg/mL	partner 0.195 µg/mL	partner 1.562 µg/mL	partner 3.125 µg/mL	partner 6.25 µg/mL
B. subtilis 168 [1], first compound 0.25 µg/mL	0.867	0.81	–	0.293	0.262	0.222
B. subtilis 168 [1], first compound 0.5 µg/mL	–	–	–	0.242	0.146	0.0811
B. subtilis 168 [1], first compound 1 µg/mL	–	–	–	0.0319	0.0369	0.0154
B. subtilis 168 [1], first compound 2 µg/mL	0.0565	0.0607	0.0393	–	–	–
S. aureus Newman [2], first compound 0.125 µg/mL	0.967	0.894	0.876	–	–	–
S. aureus Newman [2], first compound 0.25 µg/mL	0.897	0.878	0.802	–	–	–
S. aureus Newman [2], first compound 0.5 µg/mL	0.653	0.612	0.547	–	–	–

fitness, B. subtilis 168 [1]
Conditions	partner 0.04875 µg/mL	partner 0.0975 µg/mL	partner 0.195 µg/mL	partner 0.39 µg/mL	partner 0.78 µg/mL
first compound 0.25 µg/mL	–	–	0.556	0.353	0.305
first compound 0.5 µg/mL	0.708	0.609	–	0.35	0.312
first compound 1 µg/mL	0.463	0.361	0.215	0.171	0.16

Conditions	Bliss interaction score
B. subtilis 168 [3]	0.0595
S. aureus DSM 20231	-0.24
S. aureus Newman [4]	0.0821
S. pneumoniae D39V	0.0571

CC[C@H]1OC(=O)[C@H](C)[C@@H](O[C@H]2C[C@@](C)(OC)[C@@H](O)[C@H](C)O2)[C@H](C)[C@@H](O[C@@H]2O[C@H](C)C[C@H](N(C)C)[C@H]2O)[C@](C)(O)C[C@@H](C)CN(C)[C@H](C)[C@@H](O)[C@]1(C)O [Azithromycin] + O=C(O)c1cn(C2CC2)c2cc(N3CCNCC3)c(F)cc2c1=O [Ciprofloxacin]
fitness
Conditions	first compound 0.125 µg/mL	first compound 0.25 µg/mL	first compound 0.5 µg/mL
B. subtilis 168 [1], partner 0.0098 µg/mL	–	0.886	–
B. subtilis 168 [1], partner 0.0195 µg/mL	–	0.781	0.702
S. aureus Newman [2], partner 0.0375 µg/mL	0.684	0.697	0.547
S. aureus Newman [2], partner 0.075 µg/mL	0.631	0.697	0.581

B. subtilis 168 [1], first compound 2 µg/mL, one replicate
Conditions	fitness
partner 0.0098 µg/mL	0.428
partner 0.0195 µg/mL	0.279
partner 0.039 µg/mL	0.258

Conditions	Bliss interaction score
B. subtilis 168 [3]	0.228
S. aureus DSM 20231	0.105
S. aureus Newman [4]	0.102
S. pneumoniae D39V	-0.0524
